# Experiments:
# mouse stroke model = details: intravenous injection of 100 mg/kg; cited from earlier work
# [1] = tested on: middle cerebral artery occlusion (MCAO) model in mice; experiment: Neurobehavioral test (motor neurobehavior evaluation score 0-4) in mice of the middle cerebral artery occlusion model; format: in vivo; details: 10 mg/kg (2 mg/mL) tail vein injection 5 hours after stroke, higher score = higher motor dysfunction (vehicle control 3)
# Experimental: (§1) In order to simulate human brain stroke, an intravascular suture-occluded method was employed to establish a middle cerebral artery occlusion (MCAO) model in mice. Prior to experimentation, the body weights of the mice were measured and rectum temperatures were recorded. The mice were anesthetized with 4% halothane in 100% O2 followed by 0.5-1% halothane in 70% N2O and 30% O2 to maintain the anesthetized status. The mouse cerebral artery occlusion model is established according to the Tamura method (Focal cerebral ischemia in the rat: 1. Description of technique and early neuropathological consequences following middle cerebral artery occlusion. J Cereb Blood Flow Metab. 1981; 1(1):53-60. Tamura A, Graham D I, McCulloch J, Teasdale G M). […]
# The body weights of the mice in the three test groups in Example 4 were measured and neurological examination was conducted concurrently. […] Since 15 days after stroke is no longer the acute stroke phase, the invention evaluated the status of the motor system of mice treated within the acute stroke phase and those treated after the acute stroke phase. The motor responses to be assessed are listed in Table 1 (Middle cerebral artery occlusion in the rat by intraluminal suture. Neurological and pathological evaluation of an improved model. Belayev L, Alonso O F, Busto R, Zhao W, Ginsberg M D. Stroke. 1996 September; 27(9):1616-22; discussion 1623). […]
# [2] = tested on: middle cerebral artery occlusion (MCAO) model in mice; experiment: Brain infarct volume, atrophy and edema by Nissl staining in mice of the middle cerebral artery occlusion model; format: in vivo; details: 10 mg/kg (2 mg/mL)
# Experimental: as §1, with “M). The mouse was secured in prone position and an incision was introduced to the lateral of the head and neck portion by a scalpel to expose the right common carotid artery. The middle cerebral artery (MCA) was cauterized to simulate ischemia.” for “M).”
# The mice of the middle cerebral artery occlusion model were sacrificed 15 days after the treatment with the three groups of drugs. Brain samples of the mice were collected and local ischemic injuries on the neuron gray matter of the mice brains were evaluated with Nissl staining using cresyl violet. […]
Compound,hypotension / mortality (in words) (mouse stroke model),infarct volume (in words) (mouse stroke model),score of the motor neurobehavior evaluation ([1]; after 7 days of treatment),score of the motor neurobehavior evaluation ([1]; after 15 days of treatment),"brain infarct volume ([2]; 5 hours after stroke, 15 days after treatment (vehicle control about 14%))",brain atrophy (Nissl staining / infarct volume calculation) ([2]; 15 days after treatment)
OCCN(CCO)c1nc(N2CCCCC2)c2nc(N(CCO)CCO)nc(N3CCCCC3)c2n1 [Dipyridamole],causes hypotension and increases the mortality rate,can efficiently reduce the infarct volume,,,,
"recombinant-type plasminogen activator: recombinant-type plasminogen activator (rt-PA), thrombolytic agent",,,2.3,2.6,about 18%,atrophied after 15 days

# From patent US11660345B2, “Method and composition for enhancing the delivery of anti-platelet drugs for the treatment of acute stroke” (Realinn Life Science Limited, priority 2013, dated 2023)
